Assay results from patent publication US6211214A, “Biphenyl ether oxazolines and their use as pest-control agents” (Bayer Aktiengesellschaft, priority 1995, dated 2001).
Like-named read-outs stand apart in the source and are kept apart here.

Experiments:
[1] = test system: caterpillars of the owlet moth (Spodoptera frugiperda); assay: Spodoptera frugiperda test (cabbage leaves dipped); type: in vivo; details: after 7 days, 0.1% active compound; for mortality at 0.1 % strength: Spodoptera frugiperda, 168 h, read-out: destruction
Description: Spodoptera Frugiperda-Test Solvent: 7 parts by weight of dimethylformamide Emulsifier: 1 part by weight of alkylaryl polyglycol ether To produce a suitable preparation of active compound, 1 part by weight of active compound is mixed with the stated amount of solvent and the stated amount of emulsifier, and the concentrate is diluted with water to the desired concentration. Cabbage leaves (Brassica oleracea) are treated by being dipped into the preparation of active compound of the desired concentration and are infested with caterpillars of the owlet moth (Spodoptera frugiperda), as long as the leaves are still moist.

[2] = test system: green peach aphid (Myzus persicae); assay: Myzus test (infested broad bean seedlings dipped); type: in vivo; details: 144 h, after 6 days, 0.01% active compound, read-out: destruction
Description: (§1) Solvent: 7 parts by weight of dimethylformamide
(§2) Emulsifier: 1 part by weight of alkylaryl polyglycol ether
To produce a suitable preparation of active compound, 1 part by weight of active compound is mixed with the stated amount of solvent and the stated amount of emulsifier and the concentrate is diluted with water to the desired concentration.
Seedlings of broad beans (Vicia faba) infested by the green peach aphid (Myzus persicae) are dipped into the preparation of active compound of the desired concentration and placed in a plastic container.
After the desired time, the destruction in % is determined. 100% means that all the aphids have been killed; 0% means that none of the aphids has been killed.

[3] = test system: mustard beetle larvae (Phaedon cochleariae); assay: Phaedon larvae test (cabbage leaves dipped); type: in vivo; details: after 7 days, 0.01% active compound; for mortality at 0.01 % strength: Phaedon cochleariae, 168 h, read-out: destruction
Description: Phaedon Larvae Test Solvent: 7 parts by weight of dimethylformamide Emulsifier: 1 part by weight of alkylaryl polyglycol ether To produce a suitable preparation of active compound, 1 part by weight of active compound is mixed with the stated amount of solvent and the stated amount of emulsifier, and the concentrate is diluted with water to the desired concentration. Cabbage leaves (Brassica oleracea) are treated by being dipped into the preparation of the active compound of the desired concentration and are infested with mustard beetle larvae (Phaedon cochleariae), as long as the leaves are still moist.

[4] = test system: caterpillars of the diamond-back moth (Plutella maculipennis); assay: Plutella test (cabbage leaves dipped); type: in vivo; details: 168 h, after 7 days, 0.0001% active compound, read-out: destruction
Description: as §1, §2
To produce a suitable preparation of active compound, 1 part by weight of active compound is mixed with the stated amount of solvent and the stated amount of emulsifier, and the concentrate is diluted with water to the desired concentration.
Cabbage leaves (Brassica oleracea) are treated by being dipped into the preparation of active compound of the desired concentration and are infested with caterpillars of the diamond-back moth (Plutella maculipennis) while the leaves are still moist.
After the desired time, the destruction in % is determined. 100% means that all the caterpillars have been killed; 0% means that none of the caterpillars have been killed.

[5] = test system: two-spotted spider mite (Tetranychus urticae); assay: Tetranychus test (OP-resistant/dipping treatment); type: in vivo; details: 312 h, read-out: destruction
Description: Tetranychus Test (OP-resistant/dipping treatment)
as §1, §2
To produce a suitable preparation of active compound, 1 part by weight of active compound is mixed with the stated amount of solvent and the stated amount of emulsifier, and the concentrate is diluted with emulsifier-containing water to the desired concentrations.
Bean plants (Phaseolus vulgaris) which are heavily infested with all stages of the two-spotted spider mite (Tetranychus urticae) are treated by being dipped into a preparation of the active compound of the desired concentration.
After the desired time, the effect in % is determined. 100% means that all the spider mites have been killed; 0% means that none of the spider mites have been killed.

[6] = log p (partition coefficient octanol/water, determined experimentally from reversed phase HPLC); type: physicochemical; details: reversed phase hplc
Source text: [log p=logarithm of the partition coefficient p of the substance between the solvents octanol and water, determined experimentally from reversed phase HPLC]

Q: For `COc1ccc(-c2ccc(C3COC(c4c(F)cccc4F)=N3)cc2)cc1` (stereo not shown) [(A), reference compound], which destruction [1] is on record?
A: Its destruction is “no destruction”.

Q: What about the mortality at 0.01 % strength [2] of the same compound?
A: Its mortality at 0.01 % strength is 5%.

Q: And the destruction [3]?
A: The destruction was “no destruction”.

Q: What about the mortality at 0.0001 % strength [4] of the same compound?
A: Its mortality at 0.0001 % strength is 5%.

Q: And the mortality at 0.001 % strength ([5]; after 13 days, 0.001% active compound)?
A: Its mortality at 0.001 % strength is 45%.

Q: What does the source list for `O=C(COc1ccc(-c2ccc(C3COC(c4c(F)cccc4F)=N3)cc2)cc1)c1ccccc1` (stereo not shown) [Example 1, 2-(2,6-difluorophenyl)-4-(4'-benzoylmethoxy-biphenyl-4-yl)-1,3-oxazoline]?
A: mortality at 0.1 % strength [1]: 100%; mortality at 0.01 % strength [3]: 100%; mortality at 0.001 % strength [5]: 98%

Q: Which mortality at 0.1 % strength [1] does the source give for `CON=C(COc1ccc(-c2ccc(C3COC(c4c(F)cccc4F)=N3)cc2)cc1)c1ccccc1` (stereo not shown) [Example 2] here?
A: Its mortality at 0.1 % strength is 100%.

Q: What about the mortality at 0.01 % strength [3] of the same compound?
A: The mortality at 0.01 % strength was 100%.

Q: What about the mortality at 0.0001 % strength [4] of the same compound?
A: The mortality at 0.0001 % strength was 100%.

Q: What about the chromatographic logP [6] of the same compound?
A: Its chromatographic logP is 5.01.

Q: What about the mortality at 0.001 % strength [5] of the same compound?
A: The mortality at 0.001 % strength was 98%.

Q: With `CC(C#N)Oc1ccc(-c2ccc(C3COC(c4c(F)cccc4F)=N3)cc2)cc1` (stereo not shown) [Example 4, 2-(2,6-difluorophenyl)-4-[4'-(2-propionitriloxy)-biphenyl-4-yl]-1,3-oxazoline] as the compound, how does the mortality at 0.1 % strength [1] read?
A: The mortality at 0.1 % strength was 100%.

Q: And the mortality at 0.01 % strength [3]?
A: The mortality at 0.01 % strength was 100%.

Q: What about the mortality at 0.0001 % strength [4] of the same compound?
A: Its mortality at 0.0001 % strength is 100%.

Q: For `CC(C)(C)OC(=O)COc1ccc(-c2ccc(C3COC(c4c(F)cccc4F)=N3)cc2)cc1` (stereo not shown) [Example 10], which mortality at 0.1 % strength [1] is on record?
A: The mortality at 0.1 % strength was 100%.

Q: What about the chromatographic logP [6] of the same compound?
A: The chromatographic logP was 4.43.

Q: Which mortality at 0.01 % strength [3] does the source give for `CON=C(C)COc1ccc(-c2ccc(C3COC(c4c(F)cccc4F)=N3)cc2)cc1` (stereo not shown) [Example 13] here?
A: Its mortality at 0.01 % strength is 100%.

Q: For `N#CCCCOc1ccc(-c2ccc(C3COC(c4c(F)cccc4F)=N3)cc2)cc1` (stereo not shown) [Example 14], which mortality at 0.1 % strength [1] is on record?
A: Its mortality at 0.1 % strength is 100%.

Q: What about the mortality at 0.01 % strength [3] of the same compound?
A: The mortality at 0.01 % strength was 100%.

Q: What does the source list for `CCOC(CCOc1ccc(-c2ccc(C3COC(c4c(F)cccc4F)=N3)cc2)cc1)OCC` (stereo not shown) [Example 16]?
A: mortality at 0.1 % strength [1]: 100%; mortality at 0.01 % strength [3]: 100%; chromatographic logP [6]: 4.74

Q: With `COC(=O)C(Oc1ccc(-c2ccc(C3COC(c4c(F)cccc4F)=N3)cc2)cc1)C(C)C` (stereo not shown) [Example 18] as the compound, how does the mortality at 0.1 % strength [1] read?
A: Its mortality at 0.1 % strength is 100%.

Q: And the chromatographic logP [6]?
A: Its chromatographic logP is 4.56.

Q: With `CC(Oc1ccc(-c2ccc(C3COC(c4c(F)cccc4F)=N3)cc2)cc1)C1=NOCCO1` (stereo not shown) [Example 20] as the compound, how does the mortality at 0.1 % strength [1] read?
A: Its mortality at 0.1 % strength is 100%.

Q: What about the mortality at 0.01 % strength [3] of the same compound?
A: The mortality at 0.01 % strength was 100%.

Q: What does the source list for `CCCC(C#N)Oc1ccc(-c2ccc(C3COC(c4c(F)cccc4F)=N3)cc2)cc1` (stereo not shown) [Example 21]?
A: mortality at 0.1 % strength [1]: 100%; mortality at 0.01 % strength [3]: 100%

Q: For `CON=C(COc1ccc(-c2ccc(C3COC(c4c(F)cccc4F)=N3)cc2)cc1)c1cc(Cl)ccc1Cl` (stereo not shown) [Example 191], which chromatographic logP ([6]; A isomer) is on record?
A: Its chromatographic logP is 5.62.

Q: What about the chromatographic logP ([6]; B isomer) of the same compound?
A: The chromatographic logP was 5.44.

Q: For `CCON=C(COc1ccc(-c2ccc(C3COC(c4c(F)cccc4F)=N3)cc2)cc1)c1cc(Cl)ccc1Cl` (stereo not shown) [Example 192], which chromatographic logP ([6]; A isomer) is on record?
A: Its chromatographic logP is 6.

Q: What about the chromatographic logP ([6]; B isomer) of the same compound?
A: Its chromatographic logP is 5.79.
